Laboratory results published in US11927585B2, “Solvent-based inks and coatings for food contact applications” (SUN CHEMICAL CORPORATION, priority 2020, dated 2024).

Legend:
[1] = Specific migration limit (SML) from regulation or hazard assessment (TTC, VEGA QSAR, Cramer Class); details: for SML or Restriction (mg substance/kg food): source HA (internal hazard assessment), self-derived SML, EU Cube model; for SML (or restriction): Source of SML or restriction: HA (internal hazard assessment)
[2] = Worst-case calculation (100% migration), standard EU Cube exposure model; details: for Worst-case calculation as a percentage of SML (or restriction), EU Cube / Worst Case Calculation of migration in EU Cube model (as a percentage of SML): 100% migration; for Worst-case calculation as a percentage of SML (or restriction), EU Cube: 2.0 g/m^2 dry film; for Worst Case Calculation of migration in EU Cube model (as a percentage of SML): dry coat weight 2.0 g/m^2
[3] = Worst-case calculation, Application 2 cheese packaging wrap exposure scenario; details: 100% migration, 2.0 g/m^2 dry film
[4] = Worst-case calculation, Application 1 yoghurt pot lid exposure scenario; details: 100% migration, 2.0 g/m^2 dry film
[5] = substance in ink SBDEV980 (Ex. 4B Red)
[6] = substance in ink SBDEV977 (Ex. 4A Yellow)
[7] = substance in ink SBDEV976 (Ex. 4C Cyan)

SMILES: O=C(O)c1ccc(-c2ccccc2)cc1 [0000092-92-2, 4-Phenylbenzoic Acid]
- SML or Restriction (mg substance/kg food) [1]: 0.09 mg substance/kg food
- Worst-case calculation as a percentage of SML (or restriction), EU Cube ([2]; product SBDEV980): 7 percentage of SML (or restriction)
- Worst-case calculation as a percentage of SML (or restriction), EU Cube ([2]; product SBDEV1285): 7 percentage of SML (or restriction)
- Worst Case Calculation of migration in EU Cube model (as a percentage of SML) [2, 5]: 7 percentage of SML
- Worst-case calculation as a percentage of SML (or restriction), Application 2 ([3]; product SBDEV980): 10.1 percentage of SML (or restriction)
- Worst-case calculation as a percentage of SML (or restriction), Application 2 ([3]; product SBDEV1285): 10.1 percentage of SML (or restriction)
- Worst-case calculation as a percentage of SML (or restriction), Application 1 ([4]; product SBDEV980): 2.8 percentage of SML (or restriction)
- Worst-case calculation as a percentage of SML (or restriction), Application 1 ([4]; product SBDEV1285): 2.8 percentage of SML (or restriction)

SMILES: O=C(O)c1ccc(-c2ccccc2)cc1 [4-Phenylbenzoic Acid]
- SML (or restriction) [1]: 0.09 mg substance/kg food

SMILES: CCCOC(CC)OCCC [0004744-11-0, Propane, 1,1-dipropoxy-]
- SML or Restriction (mg substance/kg food) [1]: 0.09 mg substance/kg food

SMILES: CCCOC(CC)OCCC [Propane, 1,1-dipropoxy-]
- SML (or restriction) [1]: 0.09 mg substance/kg food

SMILES: O=C1NC(=O)c2ccccc21 [0000085-41-6, Phthalimide]
- SML or Restriction (mg substance/kg food) [1]: 0.09 mg substance/kg food
- Worst-case calculation as a percentage of SML (or restriction), EU Cube ([2]; product SBDEV977): 960 percentage of SML (or restriction)
- Worst-case calculation as a percentage of SML (or restriction), EU Cube ([2]; product SBDEV1287): 950 percentage of SML (or restriction)
- Worst Case Calculation of migration in EU Cube model (as a percentage of SML) [2, 6]: 960 percentage of SML
- Worst-case calculation as a percentage of SML (or restriction), Application 2 ([3]; product SBDEV977): 1382.4 percentage of SML (or restriction)
- Worst-case calculation as a percentage of SML (or restriction), Application 2 ([3]; product SBDEV1287): 1368.0 percentage of SML (or restriction)
- Worst-case calculation as a percentage of SML (or restriction), Application 1 ([4]; product SBDEV977): 377.6 percentage of SML (or restriction)
- Worst-case calculation as a percentage of SML (or restriction), Application 1 ([4]; product SBDEV1287): 373.7 percentage of SML (or restriction)

SMILES: CCCC1OC(CCC)OC(CCC)O1 (stereo not shown) [0002396-43-2, 2,4,6-tripropyl-1,3,5-Trioxane]
- SML or Restriction (mg substance/kg food) [1]: 0.09 mg substance/kg food
- Worst-case calculation as a percentage of SML (or restriction), EU Cube ([2]; product SBDEV976): 61 percentage of SML (or restriction)
- Worst-case calculation as a percentage of SML (or restriction), EU Cube ([2]; product SBDEV977): 67 percentage of SML (or restriction)
- Worst-case calculation as a percentage of SML (or restriction), EU Cube ([2]; product SBDEV980): 60 percentage of SML (or restriction)
- Worst-case calculation as a percentage of SML (or restriction), EU Cube ([2]; product SBDEV1284): 66 percentage of SML (or restriction)
- Worst-case calculation as a percentage of SML (or restriction), EU Cube ([2]; product SBDEV1285): 67 percentage of SML (or restriction)
- Worst-case calculation as a percentage of SML (or restriction), EU Cube ([2]; product SBDEV1286): 61 percentage of SML (or restriction)
- Worst-case calculation as a percentage of SML (or restriction), EU Cube ([2]; product SBDEV1287): 68 percentage of SML (or restriction)
- Worst Case Calculation of migration in EU Cube model (as a percentage of SML) [2, 7]: 61 percentage of SML
- Worst Case Calculation of migration in EU Cube model (as a percentage of SML) [2, 6]: 67 percentage of SML
- Worst Case Calculation of migration in EU Cube model (as a percentage of SML) ([2]; substance in ink SBDEV979 (Ex. 4D Black)): 65 percentage of SML
- Worst Case Calculation of migration in EU Cube model (as a percentage of SML) [2, 5]: 66 percentage of SML
- Worst-case calculation as a percentage of SML (or restriction), Application 2 ([3]; product SBDEV976): 87.8 percentage of SML (or restriction)
- Worst-case calculation as a percentage of SML (or restriction), Application 2 ([3]; product SBDEV977): 96.5 percentage of SML (or restriction)
- Worst-case calculation as a percentage of SML (or restriction), Application 2 ([3]; product SBDEV980): 95.0 percentage of SML (or restriction)
- Worst-case calculation as a percentage of SML (or restriction), Application 2 ([3]; product SBDEV1284): 95.0 percentage of SML (or restriction)
- Worst-case calculation as a percentage of SML (or restriction), Application 2 ([3]; product SBDEV1285): 96.5 percentage of SML (or restriction)
- Worst-case calculation as a percentage of SML (or restriction), Application 2 ([3]; product SBDEV1286): 87.8 percentage of SML (or restriction)
- Worst-case calculation as a percentage of SML (or restriction), Application 2 ([3]; product SBDEV1287): 97.9 percentage of SML (or restriction)
- Worst-case calculation as a percentage of SML (or restriction), Application 1 ([4]; product SBDEV976): 24.0 percentage of SML (or restriction)
- Worst-case calculation as a percentage of SML (or restriction), Application 1 ([4]; product SBDEV977): 26.4 percentage of SML (or restriction)
- Worst-case calculation as a percentage of SML (or restriction), Application 1 ([4]; product SBDEV980): 26.0 percentage of SML (or restriction)
- Worst-case calculation as a percentage of SML (or restriction), Application 1 ([4]; product SBDEV1284): 26.0 percentage of SML (or restriction)
- Worst-case calculation as a percentage of SML (or restriction), Application 1 ([4]; product SBDEV1285): 26.4 percentage of SML (or restriction)
- Worst-case calculation as a percentage of SML (or restriction), Application 1 ([4]; product SBDEV1286): 24.0 percentage of SML (or restriction)
- Worst-case calculation as a percentage of SML (or restriction), Application 1 ([4]; product SBDEV1287): 26.7 percentage of SML (or restriction)

SMILES: N#Cc1ccc(-c2ccccc2)cc1 [4-Phenylbenzonitrile]
- SML (or restriction) [1]: 0.09 mg substance/kg food

SMILES: CCCCCCCC/C=C\CCCCCCCC(=O)OCC [Ethyl Oleate]
- SML (or restriction) [1]: 0.09 mg substance/kg food

SMILES: c1ccc(-c2ccc(-c3nc(-c4ccc(-c5ccccc5)cc4)nc(-c4ccc(-c5ccccc5)cc4)n3)cc2)cc1 [0031274-51-8, 1,3,5-Triazine, 2,4,6-Tris([1,1′-Biphenyl]-4-Yl)-]
- SML or Restriction (mg substance/kg food) [1]: 5 mg substance/kg food
- Worst-case calculation as a percentage of SML (or restriction), EU Cube ([2]; product SBDEV980): 0.3 percentage of SML (or restriction)
- Worst-case calculation as a percentage of SML (or restriction), EU Cube ([2]; product SBDEV1285): 0.3 percentage of SML (or restriction)
- Worst Case Calculation of migration in EU Cube model (as a percentage of SML) [2, 5]: 0.3 percentage of SML
- Worst-case calculation as a percentage of SML (or restriction), Application 2 ([3]; product SBDEV980): 0.4 percentage of SML (or restriction)
- Worst-case calculation as a percentage of SML (or restriction), Application 2 ([3]; product SBDEV1285): 0.4 percentage of SML (or restriction)
- Worst-case calculation as a percentage of SML (or restriction), Application 1 ([4]; product SBDEV980): 0.1 percentage of SML (or restriction)
- Worst-case calculation as a percentage of SML (or restriction), Application 1 ([4]; product SBDEV1285): 0.1 percentage of SML (or restriction)

SMILES: OCCNCCO [0000111-42-2, Diethanolamine]
- Worst Case Calculation of migration in EU Cube model: Basis for Safety outcome ([2]; substance in ink SBDEV977 (Ex. 4A Yellow), volatile substance): Converter

SMILES: O=C1NC(=O)C(=C2NC(=O)c3ccccc32)C(=O)N1 [0013481-50-0, 2,4,6(1H,3H,5H)-Pyrimidinetrione, 5-(2,3-Dihydro-3-Oxo-1H-Isoindol-1-Ylidene)-]
- SML or Restriction (mg substance/kg food) [1]: 0.09 mg substance/kg food

SMILES: O=Cc1ccc(Cl)cc1 [4-Chlorobenzaldehyde]
- SML (or restriction) [1]: 0.09 mg substance/kg food

SMILES: c1ccc2ccccc2c1 [0000091-20-3, Naphthalene]
- Worst-case calculation as a percentage of SML (or restriction), EU Cube ([2]; product SBDEV976): 0.4 percentage of SML (or restriction)
- Worst-case calculation as a percentage of SML (or restriction), EU Cube ([2]; product SBDEV1286): 0.4 percentage of SML (or restriction)
- Worst Case Calculation of migration in EU Cube model (as a percentage of SML) [2, 7]: 0.4 percentage of SML
- Worst-case calculation as a percentage of SML (or restriction), Application 2 ([3]; product SBDEV976): 0.6 percentage of SML (or restriction)
- Worst-case calculation as a percentage of SML (or restriction), Application 2 ([3]; product SBDEV1286): 0.6 percentage of SML (or restriction)
- Worst-case calculation as a percentage of SML (or restriction), Application 1 ([4]; product SBDEV976): 0.2 percentage of SML (or restriction)
- Worst-case calculation as a percentage of SML (or restriction), Application 1 ([4]; product SBDEV1286): 0.2 percentage of SML (or restriction)

SMILES: O=Cc1ccc(-c2ccccc2)cc1 [4-Phenylbenzaldehyde]
- SML (or restriction) [1]: 0.09 mg substance/kg food

SMILES: NC(=O)c1ccc(-c2ccccc2)cc1 [0003815-20-1, 4-Phenylbenzamide]
- SML or Restriction (mg substance/kg food) [1]: 0.09 mg substance/kg food
- Worst-case calculation as a percentage of SML (or restriction), EU Cube ([2]; product SBDEV980): 230 percentage of SML (or restriction)
- Worst-case calculation as a percentage of SML (or restriction), EU Cube ([2]; product SBDEV1285): 230 percentage of SML (or restriction)
- Worst Case Calculation of migration in EU Cube model (as a percentage of SML) [2, 5]: 230 percentage of SML
- Worst-case calculation as a percentage of SML (or restriction), Application 2 ([3]; product SBDEV980): 331.2 percentage of SML (or restriction)
- Worst-case calculation as a percentage of SML (or restriction), Application 2 ([3]; product SBDEV1285): 331.2 percentage of SML (or restriction)
- Worst-case calculation as a percentage of SML (or restriction), Application 1 ([4]; product SBDEV980): 90.5 percentage of SML (or restriction)
- Worst-case calculation as a percentage of SML (or restriction), Application 1 ([4]; product SBDEV1285): 90.5 percentage of SML (or restriction)

SMILES: O=Cc1ccc(-c2ccccc2)cc1 [0003218-36-8, 4-Phenylbenzaldehyde]
- SML or Restriction (mg substance/kg food) [1]: 0.09 mg substance/kg food

SMILES: O=C1NCCN1 [2-Imidazolidinone]
- SML (or restriction) [1]: 4.98 mg substance/kg food

SMILES: NC(=O)c1ccc(-c2ccccc2)cc1 [4-Phenylbenzamide]
- SML (or restriction) [1]: 0.09 mg substance/kg food

SMILES: CCCC1OC(CCC)OC(CCC)O1 (stereo not shown) [2,4,6-tripropyl-1,3,5-Trioxane]
- SML (or restriction) [1]: 0.09 mg substance/kg food

SMILES: c1ccc(-c2ccc(-c3nc(-c4ccc(-c5ccccc5)cc4)nc(-c4ccc(-c5ccccc5)cc4)n3)cc2)cc1 [1,3,5-Triazine, 2,4,6-Tris([1,1′-Biphenyl]-4-Yl)-]
- SML (or restriction) [1]: 5 mg substance/kg food
